Assay results reported in publication PMC7648750, “In vitro and in vivo BNCT investigations using a carborane containing sulfonamide targeting CAIX epitopes on malignant pleural mesothelioma and breast cancer cells” (Scientific Reports, 2020).

Key:
[1] = Boron biodistribution in AB22 tumour bearing mice (ICP-MS); format: in vivo, Balb/c mice; details: 37.5 mg/kg of boron, ± SD; for Brain [boron]: with β-cyclodextrin oligomer
Procedure: Adult male Balb/c mice were maintained under specific pathogen-free conditions at the animal facility of the Department of Molecular Biotechnology and Health Sciences (Turin University, Italy). All animal experiments have been carried out in accordance with the EU Directive 2010/63/EU for animal experiments. The animal treatment protocol was approved by the Italian Ministry of Health (Authorization Number 1012/2015-PR). AB22 cells were cultured as described above and tumours were generated by the injection of 4.8 × 10^6 AB22 cells in a final volume of 0.15 ml GFNR Matrigel (CORNING Ref. 354234): PBS (1:1 v/v) subcutaneously in the neck of the mouse. One week after the AB22-cell injection, the mice developed solid tumours of approximately 50 ± 10 mm^3 in volume. At this time, mice (n = 6) received an intravenous injection of CA-SF (88 mg/kg corresponding to 37.5 mg/kg of ^10B). Before the injection, CA-SF in DMSO was mixed in the presence of poly β-cyclodextrin (MW = 15,000 Da) previously dissolved in 0.9% solution of NaCl. The used CA-SF molar ratio with respect to β-cyclodextrin oligomer was 10:1. The DMSO concentration in 0.9% NaCl was kept under 5%. The mice were then sacrificed at 6 h (n = 3) and at 16 h (n = 3). The boron content of mice plasma, tumours, organs (Liver, Lung, Brain, Spleen, Kidneys) and healthy tissues (Muscle) was determined by ICP-MS technique (see below).
Boron content from cell samples, mice organs, plasma and tumours were determined using inductively coupled plasma mass spectrometry (ICP-MS) (Element-2; Thermo-Finnigan, Rodano (MI), Italy).
The mice blood was collected and centrifuged at 2500 rpm for 10 min to split the plasma part over whole blood; the tumours, organs and healthy tissues were explanted. All was weighted, dissolved in HNO3 (70%) and digested. Both natural boron abundant and ^10B enriched standard solution was analyzed during sample runs in order to check for variations in the systematic bias. The calibration curve was obtained using four boron absorption standard solutions (Sigma-Aldrich) in the range 0.1–0.004 μg/mL.

[2] = system: AB22 mesothelioma tumour; assay: Tumour growth by MRI in AB22 mesothelioma tumour bearing mice (CA-SF with or without BNCT); format: in vivo, Balb/c mice; details: three i.v. doses 37.5 mg/kg of boron at day 0, 2, 6, followed 25 days
Procedure: CA-SF treatment on mesothelioma bearing mice, were performed in the thermal column of the TRIGA Mark II reactor at Pavia University (Italy) using the same protocol reported in reference^35. The irradiation facility was previously designed for TAOrMINA treatment developed to treat multiple liver metastases with BNCT. The chamber used to perform animal irradiation has a cross section of 40 × 20 cm^2, a length of 1 m and it starts at about 1.3 m from the center of the reactor core. The animal irradiation position has been characterised in terms of neutron spectrum and background photon dose[43]. […]
The T2-weighted MR images were acquired at 1 T with an Aspect M2-High Performance MRI System (Aspect Magnet Technologies Ltd., Netanya, Israel) consisting of a NdFeB magnet, equipped with a 35 mm solenoid Tx/Tr coil of inner diameter 35 mm. […] The tumour volume (mm^3) was calculated in the region of interest (ROI) manually drawn on the whole tumour by ITK-SNAP software. Tumour volume enhancement (%) was calculated according to the following equation: ((tumour volume (time = n) – tumour volume (time = 0)/tumour volume (time = 0)) × 100, where time = 0 indicates the day of the first CA-SF treatment and time = n indicates the days when mice were acquired by MRI.

[3] = Solubility in aqueous media; format: physicochemical
[4] = Mice weight monitoring after treatment; format: in vivo, Balb/c mice
Procedure: CA-SF treatment on mesothelioma bearing mice, were performed in the thermal column of the TRIGA Mark II reactor at Pavia University (Italy) using the same protocol reported in reference^35. The irradiation facility was previously designed for TAOrMINA treatment developed to treat multiple liver metastases with BNCT. The chamber used to perform animal irradiation has a cross section of 40 × 20 cm^2, a length of 1 m and it starts at about 1.3 m from the center of the reactor core. The animal irradiation position has been characterised in terms of neutron spectrum and background photon dose[43]. To carry out neutron irradiation animals are positioned at the end of this chamber where the in air thermal neutron flux is approximately 1.2 × 10^10 n/cm^2s, operating the reactor at its maximum power. In this way the thermal neutron flux is maximised and the irradiation time is kept as short as possible (never longer than 15 min). The first mice group (irradiated and treated group, n = 5) received three doses of CA-SF/poli β cyclodextrin (37.5 mg boron/kg dose) prepared as described before. […]
The weight of IRR, CA-SF and CA-SF + IRR groups was monitored till the end of the experiment (Supplementary Figure S1).

- Brain [boron] ([1]; 6 h post i.v.): 30.7 ± 11.2 µg/g
- Kidney [boron] ([1]; 6 h post i.v.): 48.2 ± 15.3 µg/g
- Liver [boron] ([1]; 6 h post i.v.): 64.5 ± 1.2 µg/g
- Lungs [boron] ([1]; 6 h post i.v.): 37.2 ± 11.2 µg/g
- Muscle [boron] ([1]; 6 h post i.v.): 13.2 ± 2.5 µg/g
- Plasma [boron] ([1]; 6 h post i.v.): 20.4 ± 5.4 µg/g
- Spleen [boron] ([1]; 6 h post i.v.): 18.5 ± 5.8 µg/g
- Tumour [boron] ([1]; 6 h post i.v.): 13.8 ± 2.4 µg/g
- Brain [boron] ([1]; 16 h post i.v.): 7.3 ± 1.1 µg/g
- Kidney [boron] ([1]; 16 h post i.v.): 13.7 ± 1.9 µg/g
- Liver [boron] ([1]; 16 h post i.v.): 22.7 ± 3.5 µg/g
- Lungs [boron] ([1]; 16 h post i.v.): 12.1 ± 2.2 µg/g
- Muscle [boron] ([1]; 16 h post i.v.): 4.4 ± 1.2 µg/g
- Plasma [boron] ([1]; 16 h post i.v.): 11.1 ± 1.3 µg/g
- Spleen [boron] ([1]; 16 h post i.v.): 6.2 ± 1.5 µg/g
- Tumour [boron] ([1]; 16 h post i.v.): 7.4 ± 2.1 µg/g
- solubility in aqueous media [3]: low
- loss of initial weight ([4]; treated and irradiated mice, CA-SF three doses + 15 min irradiation 250 kW): 10%
- weight decrease at the end of the study ([4]; treated mice (CA-SF, not irradiated)): 5%
Substance: 1-Sulfonamidomethyl-o-carborane [CA-SF]
- tumour growth (MRI tumour volume) vs vehicle control mice ([2]; CA-SF alone, not irradiated): significantly inhibits mice tumour growth
- tumour growth (MRI tumour volume), CA-SF + BNCT ([2]; neutron irradiation day 3, 15 min, 250 kW): dramatic reduction of the mass of tumours
